For one data set, the target named is T1, DMT1 (Homo sapiens, UniProt P49281).
T1 sequence (P49281 1-568): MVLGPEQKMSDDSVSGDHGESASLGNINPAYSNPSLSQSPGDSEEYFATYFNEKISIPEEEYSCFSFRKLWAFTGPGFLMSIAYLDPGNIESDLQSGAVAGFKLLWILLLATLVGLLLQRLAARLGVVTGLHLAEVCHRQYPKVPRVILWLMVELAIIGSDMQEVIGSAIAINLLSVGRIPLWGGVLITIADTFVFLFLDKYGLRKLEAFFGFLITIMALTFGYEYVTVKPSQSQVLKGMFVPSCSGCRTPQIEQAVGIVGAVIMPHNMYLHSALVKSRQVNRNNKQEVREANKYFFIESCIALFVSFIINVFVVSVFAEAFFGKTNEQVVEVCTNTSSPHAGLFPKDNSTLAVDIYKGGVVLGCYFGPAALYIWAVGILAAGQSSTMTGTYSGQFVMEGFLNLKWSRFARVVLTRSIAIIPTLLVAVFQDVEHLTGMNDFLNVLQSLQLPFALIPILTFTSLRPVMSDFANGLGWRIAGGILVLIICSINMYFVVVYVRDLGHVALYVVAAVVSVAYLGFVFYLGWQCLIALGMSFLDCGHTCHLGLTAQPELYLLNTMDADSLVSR
Kind of data set: DMT1 Activity Assay (In Vitro Assay). It counts as cell-based. The settings on record: read-out: IC50 Activity Level. Summed up: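 Cell-based Fe2+ uptake assay in DMT1-expressing cells (stable overexpressing lines, or endogenous in intestinal cells/tissue, K562 or […]), cells exposed to 55Fe or 59Fe or loaded with calcein before compound addition. Read-out is radiolabelled iron uptake or calcein fluorescence change; electrophysiology in Xenopus oocytes also described.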

Structures can show the parent of a compound that is named as a salt.

By IC50 is commonly meant the concentration at which inhibition is half-maximal. The melting point is the temperature, or range, at which the solid turns liquid. The molecule `N#CN=C(N)CCCc1ccccc1Sc1ccccc1CCCC(N)=NC#N` [Example 7.2, 2-(6-(3-(cyanoamidino)propyl)phenyl)thio-1-(3-(cyanoamidino)propyl)benzene] gave a melting point of 155 to 157 °C. Moreover, on DMT1, the IC50 was no less than 1 µM.
On to `N=C(N)SCc1ccccc1C(=O)c1ccccc1CSC(=N)N` (as salt: hydrobromid) [Example 2.25, 2-(6-(amidinothiomethyl)phenyl)carbonyl-1-(amidinothiomethyl)benzene dihydrobromide], for which the melting point was 239 to 240 °C (dec.).
For the molecule `N#CN=C(N)CCc1ccccc1Sc1ccccc1CCC(N)=NC#N` [Example 7, 2-(6-(2-(cyanoamidino)ethyl)phenyl)thio-1-(2-(cyanoamidino)ethyl)benzene], the melting point lay in the range of 188 to 190 °C. For the same molecule, the IC50 at DMT1 is no less than 1 µM.
In the case of `N=C(N)SCc1ccccc1Oc1ccc(Cl)cc1CSC(=N)N` (as salt: hydrobromid) [Example 2.16, 2-[2-({[amino(imino)methyl]thio}methyl)-4-chlorophenoxy]benzyl imidothiocarbamate dihydrobromide], the melting point is greater than 220 °C.
With `N=C(N)SCc1ccccc1C(=O)c1cc(F)ccc1CSC(=N)N` (as salt: hydrobromid) [Example 2.27, 2-(6-(amidinothiomethyl)phenyl)carbonyl-1-(amidinothiomethyl)-4-fluorobenzene dihydrobromide], the melting point is greater than 250 °C.

Source of the values: patent US20080234384A1, “BIARYL AND BIHETEROARYL COMPOUNDS USEFUL IN TREATING IRON DISORDERS” (XENON PHARMACEUTICALS INC., priority 2007, published 2008).
